In brackets after ≈: the same amount, converted by molar mass.
Experiments:
Escherichia coli K-10 = assay: MIC, liquid broth tube dilution assay, E. coli K-10; type: cell-based; conditions: H108 medium, 37° C., 6-7 hours
Method: (§1) (1) Determination of the minimum concentration of bacillaene required for total inhibition of growth (MIC) was performed using liquid H108 medium containing Bacto-Tryptone (10g); Bacto-yeast extract (5 g); NaCl (5 g); and distilled water (1 liter). The assays were performed in 13×100 mm glass tubes in a final volume of 0.5 ml. Two fold dilutions of the compound were utilized. The cultures were incubated at 37° C. in a test-tube rack on a shaker. Presence of turbidity was used as an indicator of growth. The tubes were read after 6-7 hours of incubation.

[1] = tested on: Escherichia coli BAS-2006; assay: MIC, liquid broth tube dilution assay, E. coli BAS-2006; type: cell-based; conditions: H108 medium, 37° C., 6-7 hours
Method: as §1

[2] = tested on: Staphylococcus aureus SC-2400; assay: Agar diffusion, S. aureus SC-2400; type: cell-based; conditions: 25 μg per well, overnight at 37° C.
Method: (§2) (3) The effect of bacillaene on a wide spectrum of bacteria was determined using the agar diffusion method. The bacteria to be tested were grown in […] broth overnight at 37° C. This culture was used to inoculate […] agar using a standard pour plate method. A 1% inoculum of the overnight culture was used. Wells of 2 mm diameter were punched in the agar and bacillaene (25 μg) was loaded in each well. The plates were incubated overnight at 37° C. and lack of growth around the agar well was scored as inhibition by bacillaene of the growth of the organism.

Escherichia coli SGB-888 = assay: MIC, liquid broth tube dilution assay, E. coli SGB-888; type: cell-based; conditions: H108 medium, 37° C., 6-7 hours
Method: as §1

[3] = tested on: Staphylococcus aureus 209P; assay: Agar diffusion, S. aureus 209P; type: cell-based; conditions: 25 μg per well, overnight at 37° C.
Method: as §2

Saccharomyces cervesiae = assay: Growth of eukaryotic cells; type: cell-based
[4] = tested on: Procaryotic in vitro transc.-transl. sys.; assay: In vitro protein synthesis, procaryotic transcription-translation coupled system (35S incorporation); type: biochemical
From the text: A prokaryotic in vitro transcription-translation coupled system was used for these experiments (Promega Corporation, 2800, Woods Hollow Road, Madison, Wis.).

Escherichia coli impB = assay: MIC, liquid broth tube dilution assay, E. coli impB; type: cell-based; conditions: H108 medium, 37° C., 6-7 hours
Method: as §1

Escherichia coli = assay: MIC, liquid broth tube dilution, E. coli strains overall; type: cell-based
Method: as §1

[5] = tested on: Escherichia coli SGB-10857; assay: MIC, liquid broth tube dilution assay, E. coli SGB-10857; type: cell-based; conditions: H108 medium, 37° C., 6-7 hours
Method: as §1

[6] = tested on: Rabbit reticulocyte in vitro trans. sys.; assay: In vitro protein synthesis, eucaryotic (rabbit reticulocyte) translation system; type: biochemical

C/C(=C/C=C/C=C/C(C)C(=O)O)NC(=O)CC(O)\C(C)=C/C=C\C=C(C)\C=C\C=C/C=C/CNC(=O)C(O)CC(C)C (stereo not shown) [Bacillaene, bacillaene]
MIC (Escherichia coli K-10): 37.0 µg/mL (≈ 63.7 µM)
MIC [1]: 0.60 µg/mL (≈ 1.03 µM)
Growth Inhibition [2]: ++ (hazy)
MIC (Escherichia coli SGB-888): 0.09 µg/mL (≈ 0.155 µM)
Growth Inhibition [3]: ++ (hazy)
effect on growth of eukaryotic cells (in words) (Saccharomyces cervesiae): not observed to affect the growth
inhibition of procaryotic protein synthesis (in words) ([4]; 35S incorporation into trichloroacetic-acid-precipitable polypeptides): potent inhibitor of procaryotic protein synthesis
Inhibition of in vitro protein synthesis, procaryotic in vitro transc.-transl. sys. ([4]; final conc. 0.75 μg/ml): > 88.0%
Inhibition of in vitro protein synthesis, procaryotic in vitro transc.-transl. sys. ([4]; final conc. 1.5 μg/ml): > 95.0%
MIC (Escherichia coli impB): 0.50 µg/mL (≈ 0.861 µM)
potency against certain strains of Escherichia coli (in words) (Escherichia coli): extremely potent
MIC [5]: 5.0 µg/mL (≈ 8.61 µM)
inhibition of eucaryotic in vitro protein translation system (in words) ([6]; at the concentrations tested): failed to inhibit
Inhibition of in vitro protein synthesis, rabbit reticulocyte in vitro trans. sys. ([6]; final conc. 0.75 μg/ml): < 7.0%
Inhibition of in vitro protein synthesis, rabbit reticulocyte in vitro trans. sys. ([6]; final conc. 1.5 μg/ml): < 7.0%
Inhibition of in vitro protein synthesis, rabbit reticulocyte in vitro trans. sys. ([6]; final conc. 6.0 μg/ml): < 7.0%
